Measured values: US12258328B2, “6-membered heteroaryl-containing aminopyridine compounds as EGFR inhibitors” (YUHAN CORPORATION, priority 2021, dated 2025)
Read-outs that look alike come from different tables or passages of the source.

Key:
[1] = target: EGFR del19/T790M/C797S (Homo sapiens, UniProt P00533, C797S/DEL746-750/T790M); assay: Biochemical EGFR kinase assay (Lance Ultra TR-FRET), triple mutant del19/T790M/C797S
In short: (§1)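 Kinase activity is measured by TR-FRET phosphopeptide detection. Compounds span 0.003 μM to 10 μM; the 1 h reaction at room temperature is quenched with EDTA, then labelled antibody (2 nM) is incubated 60 min before reading.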

[2] = target: EGFR L858R/T790M/C797S (Homo sapiens, UniProt P00533, C797S/L858R/T790M); assay: Biochemical EGFR kinase assay (Lance Ultra TR-FRET), triple mutant L858R/T790M/C797S
In short: as §1

[3] = target: EGFR del19/C797S (Homo sapiens, UniProt P00533, C797S/DEL746-750); assay: Biochemical EGFR kinase assay (Lance Ultra TR-FRET), double mutant del19/C797S
In short: as §1

[4] = target: EGFR L858R/C797S (Homo sapiens, UniProt P00533, C797S/L858R); assay: Biochemical EGFR kinase assay (Lance Ultra TR-FRET), double mutant L858R/C797S
In short: as §1

[5] = target: EGFR wildtype (Homo sapiens, UniProt P00533); assay: Biochemical EGFR kinase assay (Lance Ultra TR-FRET), wildtype
In short: as §1

[6] = IC50 del19/T790M/C797S (nM) 100 μM ATP, 100 μM ATP
[7] = Km ATP, read-out: IC50 del19/T790M/C797S (nM) Km ATP
[8] = IC50 L858R/T790M/C797S (nM) 100 μM ATP, 100 μM ATP
[9] = Km ATP, read-out: IC50 L858R/T790M/C797S (nM) Km ATP
[10] = IC50 del19/C797S (nM) 100 μM ATP, 100 μM ATP
[11] = Km ATP, read-out: IC50 del19/C797S (nM) Km ATP
[12] = IC50 L858R/C797S (nM) 100 μM ATP, 100 μM ATP
[13] = Km ATP, read-out: IC50 L858R/C797S (nM) Km ATP
[14] = IC50 WT (nM) 100 μM ATP, 100 μM ATP
[15] = Km ATP, read-out: IC50 WT (nM) Km ATP
[16] = ATP at Km, read-out: IC50 del19/T790M/C797S, Km ATP
[17] = ATP at Km, read-out: IC50 L858R/T790M/C797S, Km ATP
[18] = ATP at Km, read-out: IC50 del19/C797S, Km ATP
[19] = ATP at Km, read-out: IC50 L858R/C797S, Km ATP
[20] = ATP at Km, read-out: IC50 WT, Km ATP
[21] = IC50 del19/T790M/C797S, 100 μM ATP
[22] = IC50 L858R/T790M/C797S, 100 μM ATP

Sequence of EGFR del19/T790M/C797S (P00533 with tags, fused parts or gaps DEL746-750/T790M/C797S): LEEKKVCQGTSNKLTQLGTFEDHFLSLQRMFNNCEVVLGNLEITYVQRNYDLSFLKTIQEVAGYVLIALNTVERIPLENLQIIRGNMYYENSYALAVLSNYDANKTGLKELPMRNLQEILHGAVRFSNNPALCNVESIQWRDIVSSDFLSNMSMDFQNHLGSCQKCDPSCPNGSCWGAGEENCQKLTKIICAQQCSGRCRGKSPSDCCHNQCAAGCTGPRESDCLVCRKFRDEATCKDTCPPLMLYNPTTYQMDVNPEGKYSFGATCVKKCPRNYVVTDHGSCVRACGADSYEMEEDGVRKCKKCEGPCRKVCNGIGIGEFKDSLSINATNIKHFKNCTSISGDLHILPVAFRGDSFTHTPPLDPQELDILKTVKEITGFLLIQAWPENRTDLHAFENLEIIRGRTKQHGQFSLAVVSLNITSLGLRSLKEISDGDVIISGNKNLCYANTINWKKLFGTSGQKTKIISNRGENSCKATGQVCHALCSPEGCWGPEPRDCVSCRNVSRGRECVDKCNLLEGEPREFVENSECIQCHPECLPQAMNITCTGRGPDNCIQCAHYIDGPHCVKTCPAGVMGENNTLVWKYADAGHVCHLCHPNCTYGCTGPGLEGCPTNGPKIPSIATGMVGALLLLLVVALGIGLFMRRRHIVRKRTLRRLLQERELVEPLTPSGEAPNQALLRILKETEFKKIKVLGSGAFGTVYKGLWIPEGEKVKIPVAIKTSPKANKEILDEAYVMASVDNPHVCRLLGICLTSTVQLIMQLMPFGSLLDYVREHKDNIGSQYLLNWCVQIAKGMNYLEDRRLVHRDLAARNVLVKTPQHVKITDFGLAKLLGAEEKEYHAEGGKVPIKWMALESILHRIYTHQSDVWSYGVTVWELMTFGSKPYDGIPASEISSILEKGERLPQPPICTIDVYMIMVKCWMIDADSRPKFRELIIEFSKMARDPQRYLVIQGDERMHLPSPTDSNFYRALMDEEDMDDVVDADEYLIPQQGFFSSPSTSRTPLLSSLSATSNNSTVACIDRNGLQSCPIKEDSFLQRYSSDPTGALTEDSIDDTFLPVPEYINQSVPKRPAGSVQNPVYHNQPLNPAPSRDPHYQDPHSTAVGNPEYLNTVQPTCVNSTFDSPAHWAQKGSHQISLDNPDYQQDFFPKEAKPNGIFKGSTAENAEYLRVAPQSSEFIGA
Sequence of EGFR wildtype (P00533 25-1210): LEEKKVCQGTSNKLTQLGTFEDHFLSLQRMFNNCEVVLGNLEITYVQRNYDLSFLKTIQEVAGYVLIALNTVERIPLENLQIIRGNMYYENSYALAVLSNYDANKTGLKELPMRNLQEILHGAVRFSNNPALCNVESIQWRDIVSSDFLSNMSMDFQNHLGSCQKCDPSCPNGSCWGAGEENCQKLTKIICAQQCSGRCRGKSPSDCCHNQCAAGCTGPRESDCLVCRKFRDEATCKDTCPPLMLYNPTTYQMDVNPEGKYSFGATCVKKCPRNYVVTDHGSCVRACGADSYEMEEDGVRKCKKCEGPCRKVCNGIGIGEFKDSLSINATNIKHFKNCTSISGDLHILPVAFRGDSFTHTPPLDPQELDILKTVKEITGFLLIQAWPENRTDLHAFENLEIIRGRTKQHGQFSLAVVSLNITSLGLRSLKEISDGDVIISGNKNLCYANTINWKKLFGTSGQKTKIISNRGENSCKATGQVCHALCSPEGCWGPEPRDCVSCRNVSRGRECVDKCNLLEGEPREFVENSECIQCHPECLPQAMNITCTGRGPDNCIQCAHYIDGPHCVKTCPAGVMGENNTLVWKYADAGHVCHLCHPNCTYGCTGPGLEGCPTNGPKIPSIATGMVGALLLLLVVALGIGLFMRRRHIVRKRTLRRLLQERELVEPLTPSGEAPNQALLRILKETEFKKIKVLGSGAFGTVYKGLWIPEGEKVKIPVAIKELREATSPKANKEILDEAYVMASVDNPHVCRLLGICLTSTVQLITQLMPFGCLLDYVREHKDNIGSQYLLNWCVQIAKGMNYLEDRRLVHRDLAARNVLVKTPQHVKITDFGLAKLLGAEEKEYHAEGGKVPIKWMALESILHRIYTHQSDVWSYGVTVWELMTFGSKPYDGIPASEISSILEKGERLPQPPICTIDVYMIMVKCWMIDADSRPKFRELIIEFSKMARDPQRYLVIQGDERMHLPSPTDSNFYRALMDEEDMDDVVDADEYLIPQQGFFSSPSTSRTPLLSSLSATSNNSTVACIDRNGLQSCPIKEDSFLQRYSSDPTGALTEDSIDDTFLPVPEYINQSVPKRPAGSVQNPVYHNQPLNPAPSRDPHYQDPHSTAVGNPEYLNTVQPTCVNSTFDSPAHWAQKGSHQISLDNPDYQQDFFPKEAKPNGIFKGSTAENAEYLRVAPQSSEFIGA
Sequence of EGFR L858R/T790M/C797S (P00533 25-1210 T790M/C797S/L858R): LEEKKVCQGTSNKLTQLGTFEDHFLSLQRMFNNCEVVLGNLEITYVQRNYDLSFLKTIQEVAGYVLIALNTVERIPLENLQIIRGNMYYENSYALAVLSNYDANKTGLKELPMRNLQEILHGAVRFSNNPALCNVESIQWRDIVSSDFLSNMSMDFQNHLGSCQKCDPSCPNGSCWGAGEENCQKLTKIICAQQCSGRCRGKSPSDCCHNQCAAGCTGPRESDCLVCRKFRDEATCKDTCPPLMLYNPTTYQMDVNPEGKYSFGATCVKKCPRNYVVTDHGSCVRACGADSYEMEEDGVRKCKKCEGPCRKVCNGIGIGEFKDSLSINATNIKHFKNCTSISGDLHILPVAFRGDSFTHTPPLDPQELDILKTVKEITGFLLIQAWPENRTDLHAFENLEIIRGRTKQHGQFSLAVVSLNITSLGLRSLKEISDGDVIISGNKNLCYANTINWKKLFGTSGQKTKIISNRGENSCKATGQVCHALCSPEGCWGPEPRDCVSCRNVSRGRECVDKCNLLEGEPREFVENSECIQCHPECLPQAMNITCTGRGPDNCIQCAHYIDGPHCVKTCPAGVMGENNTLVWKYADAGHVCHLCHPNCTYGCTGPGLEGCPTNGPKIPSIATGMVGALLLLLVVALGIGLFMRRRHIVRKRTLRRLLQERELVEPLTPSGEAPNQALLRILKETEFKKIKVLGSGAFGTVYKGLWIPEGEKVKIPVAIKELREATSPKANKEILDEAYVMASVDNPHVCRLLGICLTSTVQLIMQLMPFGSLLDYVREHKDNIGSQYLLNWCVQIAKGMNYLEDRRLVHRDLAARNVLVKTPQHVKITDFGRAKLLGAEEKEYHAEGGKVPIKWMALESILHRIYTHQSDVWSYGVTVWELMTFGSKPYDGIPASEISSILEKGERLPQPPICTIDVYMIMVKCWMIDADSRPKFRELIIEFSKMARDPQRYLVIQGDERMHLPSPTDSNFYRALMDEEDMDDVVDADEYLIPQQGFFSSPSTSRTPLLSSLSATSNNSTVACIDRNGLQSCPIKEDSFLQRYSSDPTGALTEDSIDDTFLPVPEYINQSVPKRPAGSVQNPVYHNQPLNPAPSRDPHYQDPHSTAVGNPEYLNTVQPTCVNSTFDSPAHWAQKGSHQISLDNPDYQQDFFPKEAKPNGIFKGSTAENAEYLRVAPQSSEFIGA
Sequence of EGFR del19/C797S (P00533 with tags, fused parts or gaps DEL746-750/C797S): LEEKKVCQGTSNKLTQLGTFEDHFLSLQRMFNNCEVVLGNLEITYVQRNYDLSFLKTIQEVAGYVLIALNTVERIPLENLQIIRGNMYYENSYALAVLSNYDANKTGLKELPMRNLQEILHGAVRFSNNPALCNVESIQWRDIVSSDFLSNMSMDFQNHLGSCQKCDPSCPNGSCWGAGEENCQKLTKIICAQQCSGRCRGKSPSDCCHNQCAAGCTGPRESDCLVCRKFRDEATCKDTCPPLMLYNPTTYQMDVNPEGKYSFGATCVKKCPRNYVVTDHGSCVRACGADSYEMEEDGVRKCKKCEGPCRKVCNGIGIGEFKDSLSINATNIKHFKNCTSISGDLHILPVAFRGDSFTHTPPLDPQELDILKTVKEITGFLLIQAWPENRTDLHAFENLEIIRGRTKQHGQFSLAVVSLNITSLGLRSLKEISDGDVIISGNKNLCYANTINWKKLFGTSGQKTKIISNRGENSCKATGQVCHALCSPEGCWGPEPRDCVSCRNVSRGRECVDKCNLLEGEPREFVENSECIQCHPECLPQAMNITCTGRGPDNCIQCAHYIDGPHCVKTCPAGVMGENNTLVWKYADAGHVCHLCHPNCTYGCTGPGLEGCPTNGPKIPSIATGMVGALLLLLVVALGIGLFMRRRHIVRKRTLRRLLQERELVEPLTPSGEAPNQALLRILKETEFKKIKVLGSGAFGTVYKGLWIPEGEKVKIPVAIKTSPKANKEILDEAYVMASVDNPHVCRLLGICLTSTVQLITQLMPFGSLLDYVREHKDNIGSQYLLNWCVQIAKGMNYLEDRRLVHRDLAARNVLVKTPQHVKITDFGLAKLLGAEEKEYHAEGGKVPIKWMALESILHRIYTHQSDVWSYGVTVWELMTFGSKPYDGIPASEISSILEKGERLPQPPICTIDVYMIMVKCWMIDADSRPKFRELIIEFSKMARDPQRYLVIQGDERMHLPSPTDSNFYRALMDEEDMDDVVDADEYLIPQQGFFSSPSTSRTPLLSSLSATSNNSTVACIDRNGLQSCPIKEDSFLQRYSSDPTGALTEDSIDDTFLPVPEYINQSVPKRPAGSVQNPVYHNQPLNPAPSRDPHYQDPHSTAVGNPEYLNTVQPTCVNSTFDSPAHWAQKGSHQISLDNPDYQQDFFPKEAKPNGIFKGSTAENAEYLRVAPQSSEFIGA

IC50 [1, 6]	IC50 [1, 7]	IC50 [2, 8]	IC50 [2, 9]	IC50 [3, 10]	IC50 [3, 11]	IC50 [4, 12]	IC50 [4, 13]	IC50 [5, 14]	IC50 [5, 15]	IC50 [1, 16]	IC50 [2, 17]	IC50 [3, 18]	IC50 [4, 19]	IC50 [5, 20]	IC50 [1, 21]	IC50 [2, 22]	IC50 ([3]; IC50 del19/C797S, 100 μM ATP)	IC50 ([4]; IC50 L858R/C797S, 100 μM ATP)	IC50 ([5]; IC50 WT, 100 μM ATP)	SMILES
1 nM	2 nM	0.8 nM	0.9 nM	2 nM	1.6 nM	14.5 nM	2.1 nM	> 10000 nM	8.1 nM	–	–	–	–	–	–	–	–	–	–	C[C@]1(O)CC[C@@H](Nc2cc(Nc3ccnc(-c4cnn(S(=O)(=O)C5CC5)c4)n3)ncc2-c2cc(C(F)F)ccn2)CC1 [Example 76, (1s,4s)-4-((6′-((2-(1-(Cyclopropylsulfonyl)-1H-pyrazol-4-yl)pyrimidin-4-yl)amino)-4-(difluoromethyl)-[2,3′-bipyridin]-4′-yl)amino)-1-methylcyclohexan-1-ol]
–	3.9 nM	–	1.7 nM	–	281 nM	–	239 nM	–	> 10000 nM	–	–	–	–	–	–	–	–	–	–	CC(C)(O)[C@H]1CC[C@@H](Nc2cc(Nc3ccnc(-c4cnn(S(=O)(=O)C5CC5)c4)n3)ncc2-c2cnc(OC(F)F)cn2)CC1 [Example 130, 2-((1s,4s)-4-((2-((2-(1-(Cyclopropylsulfonyl)-1H-pyrazol-4-yl)pyrimidin-4-yl)amino)-5-(5-(difluoromethoxy)pyrazin-2-yl)pyridin-4-yl)amino)cyclohexyl)propan-2-ol]
–	–	–	–	–	–	–	–	–	–	15.1 nM	3.9 nM	72.7 nM	31.6 nM	216 nM	–	–	–	–	–	CC(C)(F)c1ccc(-c2cnc(Nc3ccnc(-c4cnn(S(=O)(=O)C5CC5)c4)n3)cc2NC2CCC(F)CC2)nc1 (centres unmarked) [Example 239, N^6′-(2-(1-(Cyclopropylsulfonyl)-1H-pyrazol-4-yl)pyrimidin-4-yl)-N^4′-(4-fluorocyclohexyl)-5-(2-fluoropropan-2-yl)-[2,3′-bipyridine]-4′,6′-diamine]
–	–	–	–	–	–	–	–	–	–	0.9 nM	0.2 nM	0.6 nM	0.4 nM	1.8 nM	1.7 nM	0.3 nM	0.9 nM	0.9 nM	1420 nM	O=S(=O)(C1CC1)n1cc(-c2nccc(Nc3cc(N[C@H]4CC[C@@H](CO)CC4)c(-c4ccc(C(F)(F)CO)cn4)cn3)n2)cn1 [Example 244, 2-(6′-((2-(1-(Cyclopropylsulfonyl)-1H-pyrazol-4-yl)pyrimidin-4-yl)amino)-4′-(((1s,4s)-4-(hydroxymethyl)cyclohexyl)amino)-[2,3′-bipyridin]-5-yl)-2,2-difluoroethan-1-ol]
0.2 nM	0.2 nM	0.3 nM	0.1 nM	1.1 nM	0.7 nM	21.3 nM	0.7 nM	> 10000 nM	6.6 nM	–	–	–	–	–	–	–	–	–	–	O=S(=O)(C1CC1)n1cc(-c2nccc(Nc3cc(N[C@H]4CC[C@](O)(CO)CC4)c(-c4ccccn4)cn3)n2)cn1 [Example 37, (1s,4s)-4-((6′-((2-(1-(Cyclopropylsulfonyl)-1H-pyrazol-4-yl)pyrimidin-4-yl)amino)-[2,3′-bipyridin]-4′-yl)amino)-1-(hydroxymethyl)cyclohexan-1-ol]
–	–	–	–	–	–	–	–	–	–	–	–	–	–	–	3 nM	3.8 nM	23.5 nM	187 nM	> 10000 nM	CC(C)(O)[C@H]1CC[C@@H](Nc2nccc(-c3cnc(Nc4ccnc(-c5cnn(S(=O)(=O)C6CC6)c5)n4)cc3N[C@H]3CC[C@@H](C(C)(C)O)CC3)n2)CC1 [Example 193, 2-((1s,4s)-4-((4-(6-((2-(1-(Cyclopropylsulfonyl)-1H-pyrazol-4-yl)pyrimidin-4-yl)amino)-4-(((1s,4s)-4-(2-hydroxypropan-2-yl)cyclohexyl)amino)pyridin-3-yl)pyrimidin-2-yl)amino)cyclohexyl)propan-2-ol]
–	–	–	–	–	–	–	–	–	–	5.8 nM	2.5 nM	6 nM	12 nM	47.5 nM	8.5 nM	9.1 nM	30.7 nM	67.7 nM	> 10000 nM	Cc1ccc(-c2cnc(Nc3ccnc(-c4cnn(S(=O)(=O)C5CC5)c4)n3)cc2N[C@H]2CC[C@@H](C(C)(C)O)CC2)nc1F [Example 180, 2-((1s,4s)-4-((6′-((2-(1-(Cyclopropylsulfonyl)-1H-pyrazol-4-yl)pyrimidin-4-yl)amino)-6-fluoro-5-methyl-[2,3′-bipyridin]-4′-yl)amino)cyclohexyl)propan-2-ol]
0.1 nM	0.1 nM	0.3 nM	0.1 nM	0.2 nM	–	0.9 nM	0.2 nM	1170 nM	2.4 nM	–	–	–	–	–	–	–	–	–	–	CN(C)Cc1ccnc(-c2cnc(Nc3ccnc(-c4cnn(S(=O)(=O)C5CC5)c4)n3)cc2N[C@H]2CC[C@@](C)(O)CC2)c1 [Example 64, (1s,4s)-4-((6′-((2-(1-(Cyclopropylsulfonyl)-1H-pyrazol-4-yl)pyrimidin-4-yl)amino)-4-((dimethylamino)methyl)-[2,3′-bipyridin]-4′-yl)amino)-1-methylcyclohexan-1-ol]
–	–	–	–	–	–	–	–	–	–	0.9 nM	0.7 nM	2.5 nM	4.1 nM	18.5 nM	1.1 nM	1.2 nM	2.6 nM	11.4 nM	> 10000 nM	O=S(=O)(C1CC1)n1cc(-c2nccc(Nc3cc(N[C@H]4CC[C@@H](NCC(F)F)CC4)c(-c4cccc(F)n4)cn3)n2)cn1 [Example 275, N^6′-(2-(1-(Cyclopropylsulfonyl)-1H-pyrazol-4-yl)pyrimidin-4-yl)-N^4′-((1s,4s)-4-((2,2-difluoroethyl)amino)cyclohexyl)-6-fluoro-[2,3′-bipyridine]-4′,6′-diamine]
–	–	–	–	–	–	–	–	–	–	1.2 nM	0.8 nM	3.8 nM	1.4 nM	0.6 nM	–	1.3 nM	7.7 nM	85.4 nM	> 10000 nM	CC(C)(O)[C@H]1CC[C@@H](Nc2cc(Nc3ccnc(-c4cnn(S(=O)(=O)C5CC5)c4)n3)ncc2-c2cc(OCCN3CCOCC3)ccn2)CC1 [Example 213, 2-((1s,4s)-4-((6′-((2-(1-(Cyclopropylsulfonyl)-1H-pyrazol-4-yl)pyrimidin-4-yl)amino)-4-(2-morpholinoethoxy)-[2,3′-bipyridin]-4′-yl)amino)cyclohexyl)propan-2-ol]
–	–	–	–	–	–	–	–	–	–	0.3 nM	0.1 nM	3.2 nM	1.1 nM	36 nM	–	–	–	–	–	CN1CCC(Oc2ccc(-c3cnc(Nc4ccnc(-c5cnn(S(=O)(=O)C6CC6)c5)n4)cc3N[C@H]3CC[C@@H](F)CC3)nn2)CC1 [Example 270, N^2-(2-(1-(Cyclopropylsulfonyl)-1H-pyrazol-4-yl)pyrimidin-4-yl)-N^4-((1s,4s)-4-fluorocyclohexyl)-5-(6-((1-methylpiperidin-4-yl)oxy)pyridazin-3-yl)pyridine-2,4-diamine]
0.5 nM	0.8 nM	0.5 nM	0.3 nM	0.6 nM	0.4 nM	4.7 nM	0.7 nM	450 nM	1.4 nM	–	–	–	–	–	–	–	–	–	–	CN(C)C[C@H]1CC[C@@H](Nc2cc(Nc3ccnc(-c4cnn(S(=O)(=O)C5CC5)c4)n3)ncc2-c2cc(C(F)F)ccn2)CC1 [Example 79, N^6′-(2-(1-(Cyclopropylsulfonyl)-1H-pyrazol-4-yl)pyrimidin-4-yl)-4-(difluoromethyl)-N^4′-((1s,4s)-4-((dimethylamino)methyl)cyclohexyl)-[2,3′-bipyridine]-4′,6′-diamine]
